Active and inactive are the calls of the source. No cut-off for these calls is given here.
Tests used:
[1] = Toxicity in zebrafish embryo assessed as effect in swim bladder formation at 1 to 100 uM; parameters: species or system Danio rerio; conditions: in vivo
[2] = Cardiotoxicity in zebrafish embryos assessed as artio-ventricular ratio at 1 to 100 uM; format: toxicity, Danio rerio
[3] = Intrinsic clearance in rat liver microsomes at 5 uM by LC-MS/MS analysis; format: ADME, Microsome; conditions: read-out: CLH
[4] = Toxicity in zebrafish embryo; parameters: species or system Danio rerio; conditions: in vivo
[5] = AUC (0 to extrap) in BALB/c mouse at 10 mg/kg, iv measured for 24 hrs post dose by LC-MS/MS analysis; format: ADME, organism-based; conditions: in vivo
[6] = Toxicity in zebrafish embryo assessed as effect in heart formation at 1 to 100 uM; format: tissue-based, Danio rerio; conditions: in vivo
[7] = target: High affinity cGMP-specific 3',5'-cyclic phosphodiesterase 9A (Homo sapiens) (UniProt O76083); assay: Inhibition of recombinant N-terminal GST-tagged full length human PDE9A2 expressed in Sf9 cells using F AM-cGMP as substrate at 10 uM incubated for 60 mins by fluorescence plate reader analysis
[8] = Toxicity in zebrafish embryo assessed as effect in somite formation at 1 to 100 uM; parameters: species or system Danio rerio; conditions: in vivo
[9] = Toxicity in zebrafish embryo assessed as effect in lower jaw formation at 1 to 100 uM; parameters: species or system Danio rerio; conditions: in vivo
[10] = target: High affinity cAMP-specific and IBMX-insensitive 3',5'-cyclic phosphodiesterase 8A (Homo sapiens) (UniProt O60658); assay: Inhibition of recombinant N-terminal GST-tagged full length human PDE8A1 expressed in Sf9 cells using FAM-cAMP as substrate at 10 uM incubated for 60 mins by fluorescence plate reader analysis
High affinity cAMP-specific and IBMX-insensitive 3',5'-cyclic phosphodiesterase 8A (Homo sapiens), sequence (O60658 whole entry): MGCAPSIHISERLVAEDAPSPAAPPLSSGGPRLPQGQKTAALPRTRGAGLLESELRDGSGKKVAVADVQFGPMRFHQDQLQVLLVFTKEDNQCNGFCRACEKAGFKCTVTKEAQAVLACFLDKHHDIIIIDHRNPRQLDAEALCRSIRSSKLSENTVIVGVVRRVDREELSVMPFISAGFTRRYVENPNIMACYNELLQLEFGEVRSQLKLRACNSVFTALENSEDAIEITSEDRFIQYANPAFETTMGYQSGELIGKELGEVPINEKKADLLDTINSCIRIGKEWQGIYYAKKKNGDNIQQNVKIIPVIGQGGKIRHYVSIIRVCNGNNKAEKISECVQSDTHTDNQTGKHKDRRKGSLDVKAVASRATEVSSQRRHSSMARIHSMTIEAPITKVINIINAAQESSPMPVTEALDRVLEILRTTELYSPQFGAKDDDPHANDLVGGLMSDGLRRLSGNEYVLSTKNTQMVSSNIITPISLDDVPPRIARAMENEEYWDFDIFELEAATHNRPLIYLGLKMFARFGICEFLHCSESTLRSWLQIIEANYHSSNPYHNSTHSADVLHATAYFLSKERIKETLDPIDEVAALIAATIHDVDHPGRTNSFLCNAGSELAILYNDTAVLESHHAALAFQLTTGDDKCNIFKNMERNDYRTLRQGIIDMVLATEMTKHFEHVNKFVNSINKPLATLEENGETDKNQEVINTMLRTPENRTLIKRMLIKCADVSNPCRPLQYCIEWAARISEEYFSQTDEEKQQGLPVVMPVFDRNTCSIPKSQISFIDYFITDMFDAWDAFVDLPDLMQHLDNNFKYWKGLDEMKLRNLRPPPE

[11] = Initial plasma concentration in BALB/c mouse at 10 mg/kg, iv measured for 24 hrs post dose by LC-MS/MS analysis; format: ADME, organism-based
Danio rerio [12] = assay: Anti-sclerotic activity in MOG/CFA-induced zebra fish EAE model assessed as prevention of disease progression at 3 to 30 mg/kg, ip measured for 7 days; format: functional, organism-based
[13] = target: cGMP-inhibited 3',5'-cyclic phosphodiesterase 3A (Homo sapiens) (UniProt Q14432); assay: Inhibition of recombinant PDE3A (unknown origin) using FAM-cAMP as substrate at 10 uM incubated for 60 mins by fluorescence plate reader analysis
cGMP-inhibited 3',5'-cyclic phosphodiesterase 3A (Homo sapiens), sequence (Q14432 whole entry): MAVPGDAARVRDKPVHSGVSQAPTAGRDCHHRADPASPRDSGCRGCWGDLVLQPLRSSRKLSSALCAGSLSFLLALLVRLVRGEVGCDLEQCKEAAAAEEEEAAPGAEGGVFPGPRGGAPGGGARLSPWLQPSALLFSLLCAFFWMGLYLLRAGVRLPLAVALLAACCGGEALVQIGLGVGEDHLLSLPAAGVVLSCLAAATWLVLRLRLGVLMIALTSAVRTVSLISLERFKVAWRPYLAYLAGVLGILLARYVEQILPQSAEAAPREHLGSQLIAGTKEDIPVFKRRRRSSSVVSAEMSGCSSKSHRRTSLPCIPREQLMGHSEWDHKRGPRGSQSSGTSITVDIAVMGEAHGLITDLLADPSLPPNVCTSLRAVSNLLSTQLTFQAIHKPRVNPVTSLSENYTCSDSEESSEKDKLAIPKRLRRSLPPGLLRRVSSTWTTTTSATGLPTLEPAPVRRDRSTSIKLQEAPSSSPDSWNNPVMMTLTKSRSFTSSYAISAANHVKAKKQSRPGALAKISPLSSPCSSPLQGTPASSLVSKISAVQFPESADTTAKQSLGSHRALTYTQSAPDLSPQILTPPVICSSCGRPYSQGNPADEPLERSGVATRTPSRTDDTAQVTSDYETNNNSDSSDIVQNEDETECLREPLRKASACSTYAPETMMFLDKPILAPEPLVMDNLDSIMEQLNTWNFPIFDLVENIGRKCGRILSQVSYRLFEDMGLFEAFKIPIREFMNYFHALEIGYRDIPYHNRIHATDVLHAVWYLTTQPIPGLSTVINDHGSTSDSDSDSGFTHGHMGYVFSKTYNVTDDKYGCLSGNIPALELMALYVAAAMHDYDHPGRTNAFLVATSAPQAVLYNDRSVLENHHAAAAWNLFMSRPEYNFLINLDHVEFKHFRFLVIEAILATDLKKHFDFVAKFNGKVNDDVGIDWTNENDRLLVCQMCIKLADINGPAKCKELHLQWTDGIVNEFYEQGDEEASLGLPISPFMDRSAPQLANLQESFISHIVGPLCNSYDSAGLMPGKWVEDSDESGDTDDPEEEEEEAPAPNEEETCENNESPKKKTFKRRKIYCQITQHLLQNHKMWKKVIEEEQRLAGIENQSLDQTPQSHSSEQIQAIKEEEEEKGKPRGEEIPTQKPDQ

[14] = target: cGMP-dependent 3',5'-cyclic phosphodiesterase (Homo sapiens) (UniProt O00408); assay: Inhibition of recombinant N-terminal-GST-Th-tagged full length human PDE2A1 expressed in Sf9 cells using FAM-cAMP as substrate at 10 uM incubated for 60 mins by fluorescence plate reader analysis
[15] = Toxicity in zebrafish embryo assessed as effect in fin formation at 1 to 100 uM; parameters: species or system Danio rerio; conditions: in vivo
Rattus norvegicus [16] = assay: Antiarthritic activity in complete Freund's adjuvant-induced Wistar rat arthritis model assessed as reduction in synovial inflammation at 30 mg/kg, ip administered from 11th day to 20th day by H&E staining based microscopic analysis; format: functional, organism-based
[17] = AUC (0 to infinity) in BALB/c mouse at 10 mg/kg, iv measured for 24 hrs post dose by LC-MS/MS analysis; format: ADME, organism-based; parameters: dose 10 mg/kg, time infinity, route intravenous; conditions: in vivo
Rattus norvegicus [18] = assay: Antiinflammatory activity in complete Freund's adjuvant-induced Wistar rat arthritis model assessed as reduction in iNOS mRNA expression at 30 mg/kg, ip administered from 11th day to 20th day by qPCR analysis; format: functional, organism-based
[19] = Cmax in BALB/c mouse at 10 mg/kg, iv measured for 24 hrs post dose by LC-MS/MS analysis; format: ADME, organism-based; parameters: dose 10 mg/kg, route intravenous; conditions: in vivo
[20] = target: Dual 3',5'-cyclic-AMP and -GMP phosphodiesterase 11A (Homo sapiens) (UniProt Q9HCR9); assay: Inhibition of recombinant N-terminal GST-tagged full length human PDE11A4 expressed in Sf9 cells using FAM-cAMP as substrate at 10 uM incubated for 60 mins by fluorescence plate reader analysis
Dual 3',5'-cyclic-AMP and -GMP phosphodiesterase 11A (Homo sapiens), sequence (Q9HCR9 whole entry, looked up): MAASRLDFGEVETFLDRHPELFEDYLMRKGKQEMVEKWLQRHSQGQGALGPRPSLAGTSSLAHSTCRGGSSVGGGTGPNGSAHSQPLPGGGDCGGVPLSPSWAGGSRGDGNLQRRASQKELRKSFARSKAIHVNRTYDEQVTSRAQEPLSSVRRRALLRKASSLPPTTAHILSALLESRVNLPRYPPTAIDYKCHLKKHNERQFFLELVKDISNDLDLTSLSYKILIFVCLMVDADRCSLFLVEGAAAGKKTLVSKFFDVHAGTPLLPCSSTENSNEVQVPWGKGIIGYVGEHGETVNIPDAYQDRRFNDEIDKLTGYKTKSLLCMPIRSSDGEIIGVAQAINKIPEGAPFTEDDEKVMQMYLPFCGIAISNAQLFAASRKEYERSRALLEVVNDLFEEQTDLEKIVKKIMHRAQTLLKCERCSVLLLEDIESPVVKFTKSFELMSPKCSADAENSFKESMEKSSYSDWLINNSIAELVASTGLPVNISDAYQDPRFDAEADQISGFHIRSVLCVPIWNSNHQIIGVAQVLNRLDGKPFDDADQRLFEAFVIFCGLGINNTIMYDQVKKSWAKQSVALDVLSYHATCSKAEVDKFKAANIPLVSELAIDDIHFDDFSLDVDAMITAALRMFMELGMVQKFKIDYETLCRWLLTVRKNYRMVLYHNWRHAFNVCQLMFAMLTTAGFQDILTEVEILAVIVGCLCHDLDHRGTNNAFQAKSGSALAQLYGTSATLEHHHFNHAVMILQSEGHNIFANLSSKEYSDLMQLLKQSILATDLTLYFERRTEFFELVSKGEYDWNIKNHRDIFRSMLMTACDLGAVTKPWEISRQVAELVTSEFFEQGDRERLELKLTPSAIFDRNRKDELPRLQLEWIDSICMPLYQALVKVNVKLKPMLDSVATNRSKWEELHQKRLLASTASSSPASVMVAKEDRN

RAW264.7 = assay: Antiinflammatory activity in mouse RAW264.7 cells assessed as inhibition of LPS-induced TNFalpha mRNA expression preincubated for 30 mins followed by LPS stimulation and incubated for 10 hrs by qPCR analysis; format: functional, cell-based
[21] = target: High affinity 3',5'-cyclic-AMP phosphodiesterase 7A (Homo sapiens) (UniProt Q13946); assay: Inhibition of recombinant N-terminal GST tagged human PDE7A1 (122-end aa) expressed in Sf9 cells using FAM-cAMP as substrate at 10 uM incubated for 60 mins by fluorescence plate reader analysis
High affinity 3',5'-cyclic-AMP phosphodiesterase 7A (Homo sapiens), sequence (Q13946 whole entry): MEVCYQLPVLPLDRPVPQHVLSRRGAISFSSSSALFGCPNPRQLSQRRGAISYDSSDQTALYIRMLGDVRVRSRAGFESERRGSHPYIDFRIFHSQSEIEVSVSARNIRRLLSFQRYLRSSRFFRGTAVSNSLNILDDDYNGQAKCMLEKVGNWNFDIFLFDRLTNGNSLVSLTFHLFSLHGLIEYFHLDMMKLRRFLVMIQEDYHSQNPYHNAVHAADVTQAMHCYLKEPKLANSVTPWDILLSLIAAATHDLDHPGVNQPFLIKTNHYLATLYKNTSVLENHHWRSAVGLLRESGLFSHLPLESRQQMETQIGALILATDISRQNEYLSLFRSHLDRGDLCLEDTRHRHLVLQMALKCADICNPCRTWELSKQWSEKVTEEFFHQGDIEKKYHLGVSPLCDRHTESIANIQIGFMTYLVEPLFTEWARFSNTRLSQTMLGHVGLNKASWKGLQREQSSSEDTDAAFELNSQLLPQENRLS

[22] = target: Cone cGMP-specific 3',5'-cyclic phosphodiesterase subunit alpha' (Homo sapiens) (UniProt P51160); assay: Inhibition of recombinant N-terminal GST-tagged full length human PDE6C expressed in Sf9 cells using FAM-cGMP as substrate at 10 uM incubated for 60 mins by fluorescence plate reader analysis
[23] = target: T1, 3',5'-cyclic-AMP phosphodiesterase 4B (Homo sapiens, UniProt Q07343); assay: Inhibition of human recombinant His-tagged PDE4B expressed in Sf9 cells using cAMP as substrate at 10 uM preincubated with enzyme for 15 mins followed by substrate addition and incubated for 1 hr by PDELight HTS cAMP phosphodiesterase Kit based luminometry relative to control
T1 sequence (Q07343 whole entry): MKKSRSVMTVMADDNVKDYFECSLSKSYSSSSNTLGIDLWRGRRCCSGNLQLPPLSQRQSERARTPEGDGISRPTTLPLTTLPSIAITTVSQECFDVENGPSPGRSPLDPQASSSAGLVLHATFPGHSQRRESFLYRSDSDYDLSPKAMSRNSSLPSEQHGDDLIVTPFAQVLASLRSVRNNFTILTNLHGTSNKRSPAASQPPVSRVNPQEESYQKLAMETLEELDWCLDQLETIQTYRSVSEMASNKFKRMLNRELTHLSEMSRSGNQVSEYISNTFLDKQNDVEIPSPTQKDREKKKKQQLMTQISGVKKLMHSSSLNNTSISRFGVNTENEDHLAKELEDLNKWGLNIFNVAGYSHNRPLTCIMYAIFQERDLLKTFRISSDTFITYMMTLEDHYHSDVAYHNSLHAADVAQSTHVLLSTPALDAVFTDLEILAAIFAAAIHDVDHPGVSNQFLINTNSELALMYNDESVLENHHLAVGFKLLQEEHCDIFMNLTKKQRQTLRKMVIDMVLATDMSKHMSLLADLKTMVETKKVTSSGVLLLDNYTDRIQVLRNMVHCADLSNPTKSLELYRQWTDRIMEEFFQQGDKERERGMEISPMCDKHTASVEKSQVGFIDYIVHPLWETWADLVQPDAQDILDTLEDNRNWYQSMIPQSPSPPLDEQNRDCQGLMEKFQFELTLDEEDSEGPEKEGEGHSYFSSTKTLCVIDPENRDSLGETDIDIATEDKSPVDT

[24] = Volume of distribution at steady state in BALB/c mouse at 10 mg/kg, iv measured for 24 hrs post dose by LC-MS/MS analysis; format: ADME, organism-based; conditions: in vivo, read-out: Vdss
[25] = Toxicity in zebrafish embryo assessed as effect in notochord formation at 1 to 100 uM; parameters: species or system Danio rerio; conditions: in vivo
[26] = MRTlast in BALB/c mouse at 10 mg/kg, iv measured for 24 hrs post dose by LC-MS/MS analysis; format: ADME, organism-based; conditions: in vivo
Danio rerio [27] = assay: Anti-sclerotic activity in MOG/CFA-induced zebra fish EAE model assessed as reduction in lesion score at 3 to 30 mg/kg, ip measured for 7 days; format: functional, organism-based
[28] = Toxicity in zebrafish embryos assessed as teratogenicity score at 1 to 100 uM incubated for 5 dpf; parameters: species or system Danio rerio; conditions: in vivo
[29] = target: T1, 3',5'-cyclic-AMP phosphodiesterase 4B; assay: Inhibition of recombinant His-tagged human PDE4B expressed in Sf9 cells using cAMP as substrate preincubated with enzyme for 15 mins followed by substrate addition and incubated for 1 hr by PDELight HTS cAMP phosphodiesterase Kit based luminometry
[30] = Hepatotoxicity in zebrafish embryos assessed as yolk sac retention at 1 to 100 uM incubated for 7 dpf; format: toxicity, Danio rerio; conditions: in vivo
[31] = Toxicity in zebrafish embryo assessed as effect in intestine formation at 1 to 100 uM; format: tissue-based, Danio rerio; conditions: in vivo
Rattus norvegicus [32] = assay: Antiinflammatory activity in complete Freund's adjuvant-induced Wistar rat arthritis model assessed as reduction in IL6 expression in serum at 30 mg/kg, ip administered from 11th day to 20th day by ELISA; format: functional, organism-based
[33] = target: Dual specificity calcium/calmodulin-dependent 3',5'-cyclic nucleotide phosphodiesterase 1C (Homo sapiens) (UniProt Q14123); assay: Inhibition of recombinant N-terminal GST tagged human PDE1C (2 to 634 aa) expressed in Sf9 cells at 10 uM using FAM-cAMP as substrate incubated for 60 mins by fluorescence plate reader analysis
Dual specificity calcium/calmodulin-dependent 3',5'-cyclic nucleotide phosphodiesterase 1C (Homo sapiens), sequence (Q14123 whole entry, the tested form may be a part): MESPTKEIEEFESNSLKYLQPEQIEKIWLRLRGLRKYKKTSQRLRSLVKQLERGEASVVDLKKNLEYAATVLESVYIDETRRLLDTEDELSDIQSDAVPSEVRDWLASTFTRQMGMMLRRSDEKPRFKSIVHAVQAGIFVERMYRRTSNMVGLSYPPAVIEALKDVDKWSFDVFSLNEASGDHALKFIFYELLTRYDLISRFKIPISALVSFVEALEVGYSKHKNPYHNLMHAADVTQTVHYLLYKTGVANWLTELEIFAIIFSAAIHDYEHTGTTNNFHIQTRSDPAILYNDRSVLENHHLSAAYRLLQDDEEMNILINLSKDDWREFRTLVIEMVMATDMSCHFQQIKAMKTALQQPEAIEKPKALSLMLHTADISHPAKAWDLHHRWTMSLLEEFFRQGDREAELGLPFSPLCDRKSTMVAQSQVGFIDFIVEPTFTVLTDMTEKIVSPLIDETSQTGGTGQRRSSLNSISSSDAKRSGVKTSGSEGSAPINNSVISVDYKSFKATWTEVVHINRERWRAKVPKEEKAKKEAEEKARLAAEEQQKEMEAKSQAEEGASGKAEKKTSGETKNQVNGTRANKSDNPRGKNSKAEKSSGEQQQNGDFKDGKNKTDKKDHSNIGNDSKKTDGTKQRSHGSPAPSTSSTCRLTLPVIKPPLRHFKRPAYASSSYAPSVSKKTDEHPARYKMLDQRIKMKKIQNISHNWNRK

[34] = Half life in rat liver microsomes at 5 uM by LC-MS/MS analysis; format: ADME, Microsome

microsomal CLint at 5 µM [3]: 52.8 µL/min/mg | %AUCextra [5]: 6.23% | inhibition [7]: 9% | inhibition [10]: 3% | C0 at 24 h [11]: 5.06 µg/mL | inhibition [13]: 1% | inhibition [14]: 3% | AUC(0-inf) [17]: 1.16 µg·h/mL | Cmax [19]: 2.85 µg/mL | inhibition [20]: 7% | inhibition [21]: 3% | inhibition [22]: 2% | inhibition [23]: > 75% | Vd [24]: 4.46 L/kg | MRT last at 24 h [26]: 21.6 min | IC50 [29]: 0.39 µM | inhibition [33]: 39% | half-life at 5 µM [34]: 52.5 min
Compound: C=CCn1cc(-c2nc3ccccc3nc2Cl)c2cc(OC)ccc21
Activity [1]: Non-Toxic | Activity [2]: Non-Toxic | NOAEL [4]: 30 µM | Activity [6]: Non-Toxic | Activity [8]: Non-Toxic | Activity [9]: Toxic | Activity (Danio rerio [12]): Active | Activity [15]: Non-Toxic | inhibition (Rattus norvegicus [16]): Active | inhibition (Rattus norvegicus [18]): Active | inhibition (RAW264.7): Active | Activity [25]: Toxic | inhibition (Danio rerio [27]): inactive | Activity [28]: Non-Toxic | Activity [30]: Non-Toxic | Activity [31]: Non-Toxic | inhibition (Rattus norvegicus [32]): Active
